According to PMC5761851, “Application of a phenotypic drug discovery strategy to identify biological and chemical starting points for inhibition of TSLP production in lung epithelial cells” (PLoS ONE, 2018):
Several values for one entry are separate records, joined by “and”; a condition that tells them apart may be missing. Identical values can stand only once. Like-named read-outs stand apart in the source and are kept apart here.

Molecular target: p38α (Homo sapiens, UniProt Q16539)
Assay: enzymatic p38 activity
Format: biochemical

p38α, sequence (Q16539 whole entry): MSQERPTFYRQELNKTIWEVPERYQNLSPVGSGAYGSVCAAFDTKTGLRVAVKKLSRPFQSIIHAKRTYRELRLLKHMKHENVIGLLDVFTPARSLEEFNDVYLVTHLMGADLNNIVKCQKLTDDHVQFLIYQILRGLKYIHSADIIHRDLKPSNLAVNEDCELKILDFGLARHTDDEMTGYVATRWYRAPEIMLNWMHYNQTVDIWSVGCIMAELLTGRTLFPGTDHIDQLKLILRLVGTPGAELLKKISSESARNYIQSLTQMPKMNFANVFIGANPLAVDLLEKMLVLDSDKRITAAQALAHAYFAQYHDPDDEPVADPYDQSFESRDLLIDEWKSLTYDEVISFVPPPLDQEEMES

Compound: COc1c(NC(=O)c2ccc(C)c(-c3nnc4c(NCC(C)(C)C)nccn34)c2)cc(C(C)(C)C)cc1NS(C)(=O)=O [compound 7, reference compound]
- IC50 (geometric mean, read-out: Activity in reference biochemical assay (IC50, μM) (95% CI) p38α): 0.003 µM
- IC50 (individual values, read-out: Biochemical activity (IC50, mM) (p38a)): 0.008 µM and 0.005 µM and 0.001 µM
